Here are results for 1 compound from US20100130604A1, “USE OF ROSMARINIC ACID IN MANUFACTURE OF MEDICAMENTS FOR TREATING OR PREVENTING HEPATIC AND RENAL DISEASES” (SHANGDONG LUYE NATURAL DRUG RESEARCH AND DEVELOPMENT CO., …, priority 2006, published 2010).

Experiment [1] deals with CTGF mRNA. The experiment can be described thus: RT-PCR detection of CTGF mRNA expression in HSC-T6. Type of experiment: cell-based. The settings on record: for CTGF mRNA expression rate (%): control 98.5. The protocol:
Total RNA was extracted from the cell lysate obtained in section 2.3 according the manufacturer's instructions with UNIQ-10 column total RNA extraction kit. A UV spectrophotometer was used to measure the concentration and purity. This was repeated three times and the total RNA concentration was calculated.
Reaction system: 1 μL of RT product; 10 μL of 2×PCR Master; 1 μL of each of sense primer and anti-sense primer; added double distilled water to 20 μL.
Sense primer: 5′-[…]-3′;
Anti-sense primer: 5′-[…]-3′; primer length of 383 bp;
Internal standard GAPDH (Kangcheng Bio-tech Inc.), with sense primer as 5′-[…]-3′, anti-sense primer as 5′-[…]-3′, and length of 452 bp;
Reaction conditions: pre-denature at 94° C. for 2 min, denature at 94° C. for 45 s, anneal at 54.9° C. for 30 s, extend at 72° C. for 60 s, extend at 72° C. for 10 min after 35 cycles and detect with 1.2% agarose gel electrophoresis. Scan with gel image system and calculate the ratio of gray scale between CTGF and GAPDH as an indicator of CTGF expression.
According to the results from the MTT method, groups of 0, 10, and 50 mg/L RA were selected and subjected to RT-PCR.

In experiment [2] the test system is proximal tubular epithelial cells (PTECs). The experiment is described as follows: Proliferation of PTECs cultured in glucose-rich medium (MTT). The experiment is classed as cell-based. To be noted: for OD value: 72 h, 570 nm. The protocol: A 1000 mg/L stock solution of RA in DMEM medium was prepared, and filtered through 0.22 μm microfilter to remove bacteria. The stock was then aliquoted in appropriate containers and stored at −20° C. in darkness. It is good for use within 2 weeks. DMEM supplemented with 2% fetal bovine serum (FBS) was used to dilute the stock to desired concentrations before use.
Remove frozen vials storing PTECs from liquid nitrogen, thaw in water bath at 37° C. for 5 min, centrifuge at 1000 r·min^−1 for 5 min, and discard the supernatant. Blow up the cells with culture medium and transfer them into flasks for static culture. The medium was DMEM supplemented with 10 v % FBS, 1×10^5 U·L^−1 penicillin, 100 mg·L^−1 streptomycin. The cells are cultured at 37° C., 5% CO2, and saturated humidity for 2-3 days before 0.25% trypsin were used to digest the cells which were then passaged.
PTEC cells at logarithmic phase were seeded to 96-well plate at the density of 1×10^5/mL. The medium was replaced with serum-free DMEM 24 hours later and the cell culture was cultured statically for 24 hours. Discard the supernatant, dose the wells according to table 3: normal control group (NG, 5 mmol·L^−1), high glucose group (HG, 30 mmol·L^−1), NG+10 mg/L RA group, NG+50 mg/L of RA group, HG+10 mg/L of RA group, HG50 mg/L of RA group, with 6 wells in each group. Incubate for 72 hours respectively. Add 20 μL of MTT (5 mg·mL^−1) to each well 4 hours before the experiment is terminated. Remove supernatant 4 hours later, and 150 μL of DMSO was added to each well, shake for 10 min and use ELISA reader to determine OD value at 570 nm.

The subject of experiment [3] is CTGF. The experiment is described as follows: Western blot of intracellular CTGF protein expression in PTECs. The experiment is classed as cell-based. To be noted: for CTGF expression: 72 h, relative OD of band. The protocol:
Western blot method was used to detect intracellular CTGF expression. PTEC cells at logarithmic phase were seeded to 96-well plate at the density of 1×10^5/mL. The medium was replaced with serum-free DMEM 24 hours later and the cell culture was cultured statically for 24 hours. Treat the wells as mentioned above. 72 hours later, cellular protein was extracted from the cell lysate according to modified Lowry method (Peterson G L. A simplification of the protein assay method of Lowry et al, which is more generally applicable. Anal Biochem, 1977, 83:346). 75 μg of total protein was loaded on each lane and all lanes were subject to 12% SDS-PAGE before the protein was transferred onto nitrocellulose membrane. Dye with Ponceau S (Sigma) to confirm transference and mark relative molecular weight standards. The membrane was then blocked in 5% solution of skimmed milk powder in TBST for 1 hour at room temperature. After washing, multiclonal goat-anti-rat anti-CTGF antibody (1:500, from Santa Cruz Co. Ltd.) was added and incubated overnight at 4° C. Then HRP-labeled anti-goat IgG secondary antibody (1:2 500, from Santa Cruz Co. Ltd.) was added and incubated at 37° C. for 1 hour. After rinsing, develop with 3,3-diaminobenzidine (DAB). Relative OD values of each band were analysed and the data are presented as χ±s. SPSS software was used in statistical analysis. ANOVA was applied for multi-group comparison.
A general note: Immunoblotting shows a protein as a band on a membrane.

Experiment [4] relates to CRF rats. The experiment can be described thus: CRF induced by 5/6 nephrectomy in rats. Type of experiment: in vivo, Sprague Dawley rats. The protocol:
130 rats were randomly divided into 13 groups, with 10 animals in each group, namely, a normal control group, a model group, methylprednisolone p.o. Group at 12 mg/kg, RA i.v. groups at 2.5 mg/kg, 5 mg/kg, 25 mg/kg, 75 mg/kg, and 150 mg/kg of RA, and RA p.o. groups at 5 mg/kg, 10 mg/kg, 50 mg/kg, 150 mg/kg, and 300 mg/kg of RA. Apart from the normal control group, all other rats were induced to CRF by cutting off 5/6 of the kidneys. 2/3 of the left kidney was removed in the first operation, and one week later the right kidney in the second operation. Dosing started one week after the second operation via p.o. or i.p. routes. Blood was collected from eyepit at week 4 and week 8 to determine creatinine and urea nitrogen levels in sera. 5 animals in each group were sacrificed at week 4 and […] were sacrificed at the end of the study. Pathological changes in renal function were observed through HE and PAS staining of histopathological sections.

Molecules are shown by their SMILES.

Consider `O=C(/C=C/c1ccc(O)c(O)c1)O[C@H](Cc1ccc(O)c(O)c1)C(=O)O` [RA, R(+)2-{[3-(3,4-dihydroxylphenyl-(oxo-2-propenyl)oxy]3,4-dihydroxylphenylpropionic acid]}], for which the “CTGF mRNA expression rate (%)” value in experiment [1] (10 mg/L) worked out at 71.2 ± 8.7 %; in experiment [1] (50 mg/L), 63.2 ± 9.2 %. For the same compound, the “CTGF mRNA expression in HSC-T6” value in experiment [1] (10 and 50 mg/L) was “significant inhibition on CTGF mRNA expression”. The OD value was 1.289 ± 0.041 in experiment [2] (HG (30 mmol/L glucose) + 10 mg/L RA), 1.317 ± 0.077 in experiment [2] (HG (30 mmol/L glucose) + 50 mg/L RA), 1.168 ± 0.106 in experiment [2] (NG (5 mmol/L glucose) + 10 mg/L RA) and 1.052 ± 0.036 in experiment [2] (NG (5 mmol/L glucose) + 50 mg/L RA). For the same compound, the “PTECs proliferation induced by high level of glucose” value in experiment [2] (certain concentrations of RA, P<0.05) is “can inhibit PTECs proliferation induced by high level of glucose”. For the same compound, in experiment [3] (10 mg/L and 50 mg/L RA), the “intracellular CTGF expression compared with the HG group” value is listed as “significantly down-regulated”. The CTGF expression came to 5244 ± 106 in experiment [3] (HG + 10 mg/L RA) and 5345 ± 95 in experiment [3] (HG + 50 mg/L RA). Also, the Serum urea nitrogen in experiment [4] (4 weeks, p.o. 5 mg/kg) stood at 20.21 ± 2.22 mg/dL; in experiment [4] (4 weeks, p.o. 50 mg/kg), 19.95 ± 2.20 mg/dL; in experiment [4] (8 weeks, p.o. 5 mg/kg) it was 25.98 ± 2.72 mg/dL. Further, the Serum creatinine is 1.92 ± 0.32 mg/dL in experiment [4] (8 weeks, p.o. 50 mg/kg) and 1.74 ± 0.36 mg/dL in experiment [4] (8 weeks, p.o. 300 mg/kg). Further, the “renal pathological changes (HE, PAS)” value in experiment [4] (week 8) was “alleviated by RA treatment in a dose-dependent manner”.
